Data as given in patent US10285985B2, “Pharmaceutical composition for treatment or prevention of neurodegenerative diseases” (NATIONAL UNIVERSITY CORPORATION OKAYAMA UNIVERSITY, priority 2015, dated 2019).
“And” between values parts separate entries of the source, which are not always exact repeats. Identical values can stand only once. Like-named read-outs stand apart in the source and are kept apart here.

Key:
[1] = tested on: Parkinson's disease model rats; test: Apomorphine-induced rotation in Parkinson's disease model rats (6-OHDA); format: in vivo, SD rat; settings: individual rats, Day 12, 0.015% w/w in feed, apomorphine 1 mg/kg i.p., 3 minutes
Procedure: A 8-week old male SD rat under isoflurane anesthesia was skin-incised on the head and then a connective tissue was dissected and removed. Then, the tissue was fixed on a brain stereotactic fixture, bregma and lambda coordinates were measured, a microinjection cannula was inserted at four points of administration coordinates AP (+1.3, +0.4, −0.4, −1.3 mm) and DV (−5.0 mm) at the depth of 5.0 mm from the brain surface, and 2 μL of a 3.5 mg/mL solution of 6-OHDA (6-hydroxydopamine) in a saline with 0.02% ascorbic acid as a solvent was infused at a rate of 1 μL/min. Similar surgical procedure was conducted for a sham group and saline with ascorbic acid alone was infused. Five minutes after infusion, the glass pipette was kept to be inserted for diffusing the solution. […] A rat with Parkinson's disease rotates to the left after apomorphine administration. An individual which rotated seven or more times in one minute after the initiation of the rotation was used as a Parkinson's disease model.
The rats were allowed to freely access to MF feed containing a 0.015% w/w RXR partial agonist. After 6 and 12 days, to the animal was intraperitoneally administered a 1 mg/mL solution of apomorphine in saline at 1 mg/kg, and the rotatory movement number for 3 minutes immediately after the administration was recorded.

[2] = tested on: senescence-accelerated mouse (SAMP8); test: Blood data and organ weight in senescence-accelerated mouse (SAMP8) after 9 weeks of drug feed; format: in vivo; settings: drug feed for 9 weeks, FIG. 7B, C
Procedure: After MRI imaging, the mice used in the above test were subjected to blood collection and then dissected, and blood data and the weight of each organ were recorded. Autopsy was conducted for the mice fed with MF feed containing a drug for 9 weeks. The animals were not fasted the day before the autopsy.

[3] = tested on: multiple sclerosis model mice (EAE mice); test: Multiple sclerosis model mice (EAE mice), clinical score; format: in vivo, C57BL6/J mice; settings: 0.015 w/w % in feed, vs vehicle group, FIG. 8
[4] = tested on: senescence-accelerated mouse (SAMP8); test: Y-maze test in senescence-accelerated mouse (SAMP8); format: in vivo; settings: SAMP8 mice, 0.015% in feed; FIG. 5A
Procedure: In this test, the mice used in the step-through test were used as they were.
After the step-through test, a Y-maze for a mouse (arm length: 40 cm) was used and mice were allowed to freely move for 8 minutes. In a Y-shaped system, a near-side arm, a left-back arm and a right-back arm are A, B, and C, respectively, and the number of entry into each arm was recorded (here, “entry” is defined that both hind paws of a mouse enter an arm, and entry of forepaws only is defined as “not enter”). This is called as a Y-maze.

[5] = Brain-migration ability: plasma and cerebral concentration by HPLC; format: in vivo, male ICR mice; settings: for concentration at 1 h: mouse, one hour after 30 mg/kg single-dose administration, male ICR mice, ave ± SEM
Procedure: A compound was administered at a dose of 30 mg/kg mouse body weight. A compound to be administered was prepared by dissolving it in a 1% final concentration of ethanol and suspending the solution in a 0.5% carboxymethyl cellulose (CMC) solution. Animals subjected to administration were male ICR mice (6 week old), and they were fasted from 17 o'clock the day before.
The collected blood was put in a heparinized tube, mixed with inversion and then centrifuged (600 g) for 5 minutes to obtain plasma. To 100 μL of the plasma were added 100 μL of an ammonium acetate buffer solution and 1 mL of ethyl acetate, and the mixture was stirred by a vortex mixer for 30 seconds and then left at room temperature for 10 minutes. Then, the mixture was centrifuged 30 seconds and 800 μL of the supernatant was concentrated by a centrifugal evaporator. To the concentrate was added 100 μL of an HPLC eluent to prepare an HPLC sample.
Under ether anesthesia, the brain was removed from a mouse after administrating a drug, and about 100 mg of the brain was weighed into a 2 mL Eppendorf tube. After adding 1000 μL of methanol per 100 mg of the brain, the mixture was homogenized. After the homogenization, the homogenate was centrifuged at 10,000 g at 10 to 15° C. for 10 minutes. Then, in a separate 1.5 mL Eppendorf tube, 700 μL of the supernatant […] was dispensed and concentrated to dryness by a centrifugal evaporator. To the concentrate was added 70 μL of the HPLC eluent, to give a solution (10× concentrate).
A 30 μM solution of the drug in methanol was prepared and diluted with the HPLC eluent (5 mM AcONH4, pH5, MeOH) to 10, 3, 1 and 0.3 μM. Using these, a calibration curve was formed. The plasma and the […] samples were subjected to measurement and a measured value was converted to a concentration.

[6] = mice, oral 30 mg/kg/day for one week; cited from earlier work

With `CN1CCc2cccc3c2[C@H]1Cc1ccc(O)c(O)c1-3` [Apomorphine, apomorphine] the “rotatory movement number, Left” value [1] was 11 and 19 and 9 and 4 and 16 and the “rotatory movement number, Right” value [1] was 0.

With `C=C(c1ccc(C(=O)O)cc1)c1cc2c(cc1C)C(C)(C)CCC2(C)C` [bexarotene] the blood triglyceride ([2]; SAMP8 mice) was “increase”, the “enlargement of the liver” value ([2]; SAMP8 mice) was “observed” and the blood triglyceride ([2]; SAMR1 mice) was “increase”. For the same molecule, the “enlargement of the liver” value ([2]; SAMR1 mice) was “observed”, the “clinical score / amelioration of pathological model” value [3] was “did not ameliorate” and the “effect on SAMP8 hyperactivity (number of entry in the Y-maze arm)” value [4] was “no effects”.

With `Cc1cc2c(cc1-n1nnc3cc(C(=O)O)ccc31)C(C)(C)CCC2(C)C` [CBt-PMN] the “migration to the brain compared with bexarotene” value ([5]; 30 mg/kg, mice, one hour) was “migrates more smoothly to the brain than bexarotene”, the concentration at 1 h ([5]; brain, read-out: Brain concentration) was 11.4 ± 3.7 µM and the concentration at 1 h ([5]; plasma, read-out: Plasma concentration) was 15.8 ± 6 µM.

For `CCN(c1ccc(OCC(C)C)c(C(C)C)c1)c1ccc(C(=O)O)cn1` [NEt-4IB], the “rotatory movement number, Left” value ([1]; listed as NEt-41B) is given as 53 and 18 and 6 and 0 and 32, the “rotatory movement number, Right” value ([1]; listed as NEt-41B) is given as 0 (4×) and 75 and the “liver weight vs vehicle group” value [6] is given as “not a difference”. The “tendency to weight gain (body weight change over a week)” value [6] was “not observed” and the “triglyceride level vs vehicle group” value [6] was “not a difference”.
